Values joined by “and” are separate entries in the source; they are usually repeats but may differ in a detail not shown here. Equal entries are not always repeated.
Key:
[1] = Cellular cytotoxicity (cell viability, CellTiter 96 or resazurin); conditions: human, CC50, HEK293T cells, compounds formulated with HSA (5:1)
Method: Second, HIV IC50 and cellular CC50 were determined with a pseudoviral, whole (HEK293T) cell, nonreplicative HIV assay, using the HIV-1 subtype C strain MJ4 (refer to Experimental Methods). To account for the unique amphiphilic properties of TXL and the novel HTP-based prodrugs, all compounds were formulated in a human serum albumin (HSA) solution (5:1 drug:protein).
Assessment of cytotoxicity and antiviral activity of all final compounds in vitro was conducted according to previously reported procedures.[39] In summary, human embryonic kidney (HEK293T) cells maintained in high glucose (25 mM), Dulbecco’s modified Eagle’s medium (DMEM) supplemented with fetal bovine serum (10%), sodium pyruvate (1 mM), L-glutamine (2 mM), HEPES (25 mM), and gentamicin (50 μg/mL) were used for determinations. The cells were maintained in an incubator at 37 °C under 5% CO2 in a humidified atmosphere. For both cytotoxicity and antiviral screening, all compounds were evaluated in duplicate in at least two independent experiments. All final compounds were formulated with human serum albumin (HSA, 5:1 compound to HSA molar ratio) and subsequently diluted with complete DMEM to 200 μM. Fifty microliters of test compound serial dilutions (3-fold) were prepared in 96-well culture plates, after which 50 μL of HEK293T cells (2 × 10^4 cells/well) was added. […] Cytotoxicity was then assessed by quantifying cell viability using the CellTiter 96 Aqueous One Solution Cell Proliferation Assay (Promega, Madison, WI) or resazurin sodium salt (cat# R7017, Merck, Darmstadt, Germany).[61] […] Antiviral activity was then assessed using a single-cycle, nonreplicating, envelope deleted HIV pseudoviral in vitro assay.[62],[63] The assay relies on the introduction of the firefly luciferase gene into HEK293T cells through infection with HIV-like viral particles, containing Reverse Transcriptase (RT) and Integrase (IN) from the HIV-1 subtype C strain MJ4.[64] The expression of the luciferase in the cells is directly proportional to the level of infection by the HIV-like viral particles and can be used to assess the inhibition of HIV-1 RT and IN. To evaluate anti-HIV activity, 3-fold serial dilutions of all final compounds were prepared in 50 μL over the noncytotoxic concentration range (as determined from the cytotoxicity screens described above) in 96-well culture plates. HEK293T cells (2 × 10^4 cells/well) and HIV-like viral particles, standardized to produce a luminescence signal of 1 × 10^6 relative light units (RLUs) in the growth medium only control, were combined, and 50 μL was added to the wells containing serially diluted test compounds. […] The expression of luciferase was subsequently quantified by adding 100 μL of the Bright-Glo Luciferase Assay substrate (Promega, Madison, WI) to each well of the 96-well plates. After incubation at rt for 3 min, luminescence was quantified on the GloMax Explorer Multimode Microplate Reader (Promega, Madison, WI).

[2] = Mouse liver microsome stability; conditions: CD-1, mouse, microsomes
Method: Human liver microsomes (HLMs, 20 mg/mL) and CD-1 mouse liver microsomes (MLMs, 20 mg/mL) were purchased from Xenotech. NADPH was purchased from Sigma-Aldrich and prepared in 10 mM stock solutions of distilled H2O (Invitrogen UltraPure). […] Test compounds and positive controls were initially dissolved in MeOH to make 10 mM stock solutions. Sample solutions were then further diluted in 70/30 MeOH/H2O to 500 μM. Next, the reactions were prepared by mixing human or mouse liver microsomes (55 μL) with potassium phosphate buffer (100 mM, 928 μL) in 1.5 mL Eppendorf tubes. The test compounds (6.6 μL of 500 μM solution) were subsequently added to the suspensions, and the reaction mixtures were incubated at 37 °C for 5 min. Afterward, the liver microsome reactions were initiated with 110 μL of 10 mM NADPH and further incubated at 37 °C for the designated time course of the study. […] Each test compound was run in tandem with positive and negative control experiments for quality assurance. Positive control reactions were conducted at a final volume of 550 μL for a single run of each time point.
For both LM and plasma stability assays, each data point was analyzed in duplicate using in-between blank washes to avoid carry over and to equilibrate the column for the subsequent runs. Averages of these duplicate for individual compounds at each time point were then normalized to the data at 0 min, representing 100% test compound remaining or 0% metabolism. Half-lives (t1/2) were calculated by plotting ln of % test compound remaining versus time and performing linear regression to determine slope.
Metabolic Stability Assays
Liver Microsome Stability
Liver Microsome Stability Assay Setup Example
Quenching Mixture: 100 µL MeOH with ISTD (2 µM d5-7-ethoxycoumarin).
Final Volume After Quenching: 200 µL (100 µL from reaction mixture + 100 µL quencher
solution; ISTD final concentration of 1.0 µM).

[3] = Mouse plasma pharmacokinetics after intravenous dose; type: in vivo, male C57BL/6 mice; conditions: i.v. 3 mg/kg; for k (terminal elimination rate constant): 3 mg/kg; for concentration at 0.1 h / concentration at 0.25 h / concentration at 0.5 h / concentration at 1 h / concentration at 2 h / concentration at 4 h / concentration at 6 h / concentration at 8 h: read-out: mean prodrug concentration in plasma; for Cmax at 8 h / Tmax at 8 h / AUC(0-t) at 8 h: prodrug; for AUC(0-t) at 8 h: read-out: AUC0–8h
Method: (§1) To compare the in vivo PK profiles to TXL and our previously reported drug lead 1 (Tables S19 and S26),[39] one group of male C57BL/6 mice were administered a single oral dose (p.o., 10 mg/kg) of 2a, 16g, or 16h (refer to Experimental Methods). Additionally, a separate group of mice were given a single intravenous dose (i.v., 3 mg/kg) of each prodrug to obtain plasma clearance (Cl), volume of distribution (Vd), and oral bioavailability data. Blood was sampled at 8 time points over 8 h (i.v.) or 24 h (p.o.) postdose, and plasma was isolated via centrifugation. Tissues (liver, kidney, and brain) were also harvested and homogenized at 3 time points over 24 h after oral dose. The concentrations of prodrug and TFV metabolite in each of these samples was then quantified using LC–MS/MS methodology.
(§2) Healthy male C57BL/6 mice (8–12 weeks old) weighing 20–30 g were procured from Global, India. Three mice were housed in each cage. Temperature and humidity were maintained at 22 ± 3 °C and 30–70%, respectively, and illumination was controlled to provide for 12 h light and 12 h dark cycles. Temperature and humidity were recorded by an autocontrolled data logger system. All animals were provided a laboratory rodent diet (Envigo Research private Ltd., Hyderabad). Reverse osmosis H2O treated with ultraviolet light was provided ad libitum.
(§3) Male mice were divided into two groups (n = 18 total, n = 9 per treatment group, n = 3 per time point, sparse sampling). One group was intravenously administered a solution of 2a, 16g, and 16h in 10% PEG-300, 10% Solutol HS-15, and 80% saline at 3 mg/kg with a dosing volume of 5 mL/kg. The second group was administered a solution of 2a, 16g, and 16h in 10% EtOH and 90% olive oil at 10 mg/kg via oral gavage with a dosing volume of 10 mL/kg.
(§4) Blood samples (approximately 60 μL) were collected from retro-orbital plexus under light isoflurane anesthesia such that the samples were obtained predose, as well as at eight time points post dose: 0.1, 0.25, 0.5, 1, 2, 4, 6, and 8 (i.v.) and 0.25, 0.5, 1, 2, 4, 8, 12, and 24 h (p.o.). Immediately after blood collection, plasma samples were harvested by centrifugation at 4000 rpm and 4 °C for 10 min and stored at −70 °C until LC–MS/MS analysis. Following blood collection from p.o. group, liver, kidney, and brain samples were collected (n = 3 per treatment group per time point) at 1, 4, and 24 h post dose. After isolation, tissue samples were rinsed three times with ice-cold saline and dried with blotting paper. Next, the tissue samples were homogenized using ice-cold PBS (pH = 7.4), and the resulting homogenates were stored below −70 °C until LC-MS/MS analysis. The total homogenate volume was 3 times the brain weight and 5 times the liver and kidney weight.
(§5) Areas under the concentration–time curves (AUC0–8h and AUC0–24h) were calculated via the linear trapezoidal rule[65] using GraphPad Prism v9. Furthermore, terminal elimination rate constants k were determined using linear regression (slope = −k) of the terminal portion of semilog-transformed concentration–time curves (Figures S44, S45, S47, S48, S50, and S51).

[4] = Mouse plasma pharmacokinetics after oral dose; type: in vivo, male C57BL/6 mice; conditions: for bioavailability / bioavailability at 24 h / concentration at 0.25 h / concentration at 0.5 h / concentration at 1 h / concentration at 2 h / concentration at 4 h / concentration at 8 h / concentration at 12 h / half-life at 24 h / Cmax at 24 h / Tmax / AUC(0-t) at 24 h: male, C57BL/6, mouse; for bioavailability / bioavailability at 24 h / concentration at 0.25 h / concentration at 0.5 h / concentration at 1 h / concentration at 2 h / concentration at 4 h / concentration at 8 h / concentration at 12 h / half-life at 24 h / Cmax at 24 h / Tmax / AUC(0-t) at 24 h / Vd / k (terminal elimination rate constant): plasma; for bioavailability: oral; for bioavailability / bioavailability at 24 h: p.o. 10 mg/kg vs i.v. 3 mg/kg, read-out: %F (oral bioavailability); for bioavailability at 24 h / concentration at 0.25 h / concentration at 0.5 h / concentration at 1 h / concentration at 2 h / concentration at 4 h / concentration at 8 h / concentration at 12 h / half-life at 24 h / Cmax at 24 h / Tmax / AUC(0-t) at 24 h: po; for concentration at 0.25 h / concentration at 0.5 h / concentration at 1 h / concentration at 2 h / concentration at 4 h / concentration at 8 h / concentration at 12 h / half-life at 24 h / Cmax at 24 h / Tmax / AUC(0-t) at 24 h / mean prodrug concentration in plasma / Vd / k (terminal elimination rate constant): p.o. 10 mg/kg; for concentration at 0.25 h / concentration at 0.5 h / concentration at 1 h / concentration at 2 h / concentration at 4 h / concentration at 8 h / concentration at 12 h: read-out: mean prodrug concentration in plasma; for Cmax at 24 h / Tmax / AUC(0-t) at 24 h: prodrug; for AUC(0-t) at 24 h: read-out: AUC0–24h; for mean TFV concentration in plasma: p.o. 10 mg/kg of prodrug, LLOQ 4.84 ng/mL; for concentration at 0.25 h / mean TFV concentration in plasma: 0.25 h; for mean prodrug concentration in plasma: 24 h, BLQ = below LLOQ (0.58 ng/mL 2a, 0.62 ng/mL 16g); for k (terminal elimination rate constant): 10 mg/kg
Method: as §1, §2, §3, §4, §5

CCCCCCCCCCCCCCCCSCCCOP(=O)(O)CO[C@H](C)Cn1cnc2c(N)ncnc21.N [2a]
CC50 at 48 h [1]: 50 µM | half-life at 3 μM [2]: > 2 h | remaining at 2 h, 3 μM [2]: > 95% | k (terminal elimination rate constant) [3]: 0.4666 and 0.467 | Vd at 8 h ([3]; male, C57BL/6, mouse, iv): 18.9 L/kg | clearance ([3]; male, C57BL/6, mouse, iv): 147 mL/min/kg | half-life ([3]; male, C57BL/6, mouse, iv): 1.49 h | concentration at 0.1 h ([3]; male, C57BL/6, mouse, iv): 2060 ng/mL | concentration at 0.25 h ([3]; male, C57BL/6, mouse, iv): 320 ng/mL | concentration at 0.5 h ([3]; male, C57BL/6, mouse, iv): 134 ng/mL | concentration at 1 h ([3]; male, C57BL/6, mouse, iv): 57.1 ng/mL | concentration at 2 h ([3]; male, C57BL/6, mouse, iv): 8.68 ng/mL | concentration at 4 h ([3]; male, C57BL/6, mouse, iv): 3.75 ng/mL | concentration at 6 h ([3]; male, C57BL/6, mouse, iv): 3.41 ng/mL | concentration at 8 h ([3]; male, C57BL/6, mouse, iv): 1.21 ng/mL | Cmax at 8 h ([3]; male, C57BL/6, mouse, iv): 2060 ng/mL | Tmax at 8 h ([3]; male, C57BL/6, mouse, iv): 6 min | AUC(0-t) at 8 h ([3]; male, C57BL/6, mouse, iv): 340 ng·h/mL | bioavailability [4]: 20% | bioavailability at 24 h [4]: 19.3% | concentration at 0.25 h [4]: 29.6 ng/mL | concentration at 0.5 h [4]: 51.8 ng/mL | concentration at 1 h [4]: 73.3 ng/mL | concentration at 2 h [4]: 48 ng/mL | concentration at 4 h [4]: 8.34 ng/mL | concentration at 8 h [4]: 7.1 ng/mL | concentration at 12 h [4]: 7.6 ng/mL | half-life at 24 h [4]: 3.49 h | Cmax at 24 h [4]: 73.3 ng/mL | Tmax [4]: 1 h | AUC(0-t) at 24 h [4]: 219 ng·h/mL | mean TFV concentration in plasma [4]: BLQ | mean prodrug concentration in plasma [4]: BLQ | Vd [4]: 44.4 L/kg | k (terminal elimination rate constant) [4]: 0.1985 and 0.199

C[C@H](Cn1cnc2c(N)ncnc21)OCP(=O)(O)OCCCSCCCCCCCCCCCCc1ccc(F)cc1.N [16g]
CC50 at 48 h [1]: > 100 µM | half-life at 3 μM [2]: > 2 h | remaining at 2 h, 3 μM [2]: 88% | k (terminal elimination rate constant) [3]: 0.4057 and 0.406 | Vd at 8 h ([3]; male, C57BL/6, mouse, iv): 19.9 L/kg | clearance ([3]; male, C57BL/6, mouse, iv): 134 mL/min/kg | half-life at 8 h ([3]; male, C57BL/6, mouse, iv): 1.71 h | concentration at 0.1 h ([3]; male, C57BL/6, mouse, iv): 863 ng/mL | concentration at 0.25 h ([3]; male, C57BL/6, mouse, iv): 315 ng/mL | concentration at 0.5 h ([3]; male, C57BL/6, mouse, iv): 227 ng/mL | concentration at 1 h ([3]; male, C57BL/6, mouse, iv): 71.5 ng/mL | concentration at 2 h ([3]; male, C57BL/6, mouse, iv): 21.6 ng/mL | concentration at 4 h ([3]; male, C57BL/6, mouse, iv): 12.1 ng/mL | concentration at 6 h ([3]; male, C57BL/6, mouse, iv): 7.5 ng/mL | concentration at 8 h ([3]; male, C57BL/6, mouse, iv): 3.12 ng/mL | Cmax at 8 h ([3]; male, C57BL/6, mouse, iv): 863 ng/mL | Tmax at 8 h ([3]; male, C57BL/6, mouse, iv): 6 min | AUC(0-t) at 8 h ([3]; male, C57BL/6, mouse, iv): 373 ng·h/mL | bioavailability [4]: 20% | bioavailability at 24 h [4]: 20.9% | concentration at 0.25 h [4]: 17 ng/mL | concentration at 0.5 h [4]: 43 ng/mL | concentration at 1 h [4]: 58.6 ng/mL | concentration at 2 h [4]: 55.9 ng/mL | concentration at 4 h [4]: 16 ng/mL | concentration at 8 h [4]: 11.2 ng/mL | concentration at 12 h [4]: 10.5 ng/mL | half-life at 24 h [4]: 4.19 h | Cmax at 24 h [4]: 58.6 ng/mL | Tmax [4]: 1 h | AUC(0-t) at 24 h [4]: 260 ng·h/mL | mean TFV concentration in plasma [4]: BLQ | mean prodrug concentration in plasma [4]: BLQ | Vd [4]: 48.7 L/kg | k (terminal elimination rate constant) [4]: 0.1654 and 0.165
